Results from patent US10287295B2, “TGF-β inhibitors” (Rigel Pharmaceuticals, Inc., priority 2015, dated 2019).

How the values were obtained:
HIS-TGF-βR1 T204D = HIS-TGF-βR1 T204D (Homo sapiens (Human), UniProt P36897, T204D); test: HTRF probe displacement assay, HIS-TGF-βR1 T204D; settings: read-out: TGFbr1 IC50, 1 nM HIS-TGF-βR1 T204D, 1 hour at room temperature
[1] = test system: GDF8 signaling (GDF pSMAD, MPC11); test: AlphaScreen SureFire SMAD3 (p-Ser423/425) assay, inhibition of GDF8 signaling; assay type: cell-based; settings: Mus musculus, MPC-11, inhibition of GDF8 signaling, p-SMAD3 readout
[2] = test system: TGF-β signaling (TGF-β pSMAD, MPC-11); test: AlphaScreen SureFire SMAD3 (p-Ser423/425) assay, inhibition of TGF-β signaling; assay type: cell-based; settings: Mus musculus, MPC-11, inhibition of TGF-β signaling, p-SMAD3 readout

Sequence of HIS-TGF-βR1 T204D (P36897 34-503 T204D): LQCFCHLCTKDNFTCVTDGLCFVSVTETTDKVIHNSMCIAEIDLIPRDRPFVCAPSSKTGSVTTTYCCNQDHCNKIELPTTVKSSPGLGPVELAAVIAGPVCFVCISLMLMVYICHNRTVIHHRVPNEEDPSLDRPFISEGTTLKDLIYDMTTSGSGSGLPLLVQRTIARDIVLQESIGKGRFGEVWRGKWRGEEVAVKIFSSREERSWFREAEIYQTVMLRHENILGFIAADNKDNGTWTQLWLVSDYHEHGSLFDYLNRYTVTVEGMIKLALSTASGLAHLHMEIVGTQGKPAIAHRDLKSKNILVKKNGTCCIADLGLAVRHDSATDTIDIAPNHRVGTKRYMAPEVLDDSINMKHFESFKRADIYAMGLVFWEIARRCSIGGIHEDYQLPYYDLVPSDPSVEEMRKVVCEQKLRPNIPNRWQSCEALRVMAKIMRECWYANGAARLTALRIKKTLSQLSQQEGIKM

| SMILES | IC50 [1] | IC50 [2] | IC50 (HIS-TGF-βR1 T204D) |
| --- | --- | --- | --- |
| NC(=O)c1cnc2ccc(-c3c(-c4ccc(F)c(Cl)c4)ncn3[C@H]3C[C@@H](O)C3)nn12 [140′, 6-(4-(3-chloro-4-fluorophenyl)-1-((1s,3s)-3-hydroxycyclobutyl)-1H-imidazol-5-yl)imidazo[1,2-b]pyridazine-3-carboxamide] | – | – | 2.8 nM |
| Cc1nc(-c2ccc(F)cc2)c(-c2ccc3ncc(C#N)n3c2)n1CC(F)F [272A′, 6-(1-(2,2-difluoroethyl)-4-(4-fluorophenyl)-2-methyl-1H-imidazol-5-yl)imidazo[1,2-a]pyridine-3-carbonitrile] | – | – | 251 nM |
| Nc1nc(-c2cccc(F)c2)c(-c2ccc3[nH]ncc3c2)s1 [Compound 179, 4-(3-fluorophenyl)-5-(1H-indazol-5-yl)thiazol-2-amine] | 268 nM | 1280 nM | – |
| Nc1nc(-c2cccc(C(F)(F)F)c2)c(-c2ccc3nccnc3c2)s1 [Compound 180, 5-(quinoxalin-6-yl)-4-(3-(trifluoromethyl)phenyl)thiazol-2-amine] | 301 nM | 621 nM | – |
| Fc1ccc(-c2ncsc2-c2ccc3ncsc3c2)cc1 [Compound 181, 6-(4-(4-fluorophenyl)thiazol-5-yl)benzo[d]thiazole] | 336 nM | 4550 nM | – |
| COc1ccc(-c2nc(N)sc2-c2ccc3nccnc3c2)cc1 [Compound 182, 4-(4-methoxyphenyl)-5-(quinoxalin-6-yl)thiazol-2-amine] | 352 nM | 1120 nM | – |
| Nc1nc(-c2cccc(F)c2)c(-c2ccc3nccnc3c2)s1 [Compound 183, 4-(3-fluorophenyl)-5-(quinoxalin-6-yl)thiazol-2-amine] | 365 nM | 1480 nM | – |
| COc1cccc(-c2nc(N)sc2-c2ccc3nccn3c2)c1 [Compound 184, 5-(imidazo[1,2-a]pyridin-6-yl)-4-(3-methoxyphenyl)thiazol-2-amine] | 402 nM | 1160 nM | – |

More lines, main results first:

| IC50 [1] | IC50 [2] | SMILES | IC50 (HIS-TGF-βR1 T204D) |
| --- | --- | --- | --- |
| 425 nM | 2360 nM | Nc1nc(-c2cccc(C(F)(F)F)c2)c(-c2ccc3cn[nH]c3c2)s1 [Compound 185, 5-(1H-indazol-6-yl)-4-(3-(trifluoromethyl)phenyl)thiazol-2-amine] | – |
| 478 nM | 1110 nM | COc1cccc(-c2nc(N)sc2-c2ccc3ncsc3c2)c1 [Compound 186, 5-(benzo[d]thiazol-6-yl)-4-(3-methoxyphenyl)thiazol-2-amine] | – |
| 481 nM | 3100 nM | Nc1nc(-c2cccc(F)c2)c(-c2ccc3nccn3c2)s1 [Compound 187, 4-(3-fluorophenyl)-5-(imidazo[1,2-a]pyridin-6-yl)thiazol-2-amine] | – |
| 784 nM | 365 nM | CNc1nc(-c2ccc(F)cc2)c(-c2ccc3nccn3c2)s1 [Compound 188, 4-(4-fluorophenyl)-5-(imidazo[1,2-a]pyridin-6-yl)-N-methylthiazol-2-amine] | – |
